# Laboratory results taken from patent US20260262643A1, “HERBICIDAL BENZOXAZINES” (FMC CORPORATION, priority 2022, published 2026).
# Assays:
# pigweed, palmer [1] = assay: Test C postemergence; format: in vivo, Amaranthus palmeri; details: 10 days
# In short: (§1)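 Seeds in loam–sand blend received preemergence directed soil spray of test chemicals in non-phytotoxic solvent with surfactant; postemergence treatment was applied at one- to two-leaf stage (2–10 cm). After 10 days in greenhouse, injury rated visually versus untreated controls, 0 (no effect) to 100 (complete control).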
# sedge, umbrella = assay: Test D flooded paddy test; format: in vivo, Cyperus difformis; details: 250 g ai/ha, applied to paddy water, visual rating after 13 to 14 days, scale 0 to 100 (0 no effect, 100 complete control)
# In short: (§2)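 At the 2-leaf stage, floodwater 3 cm deep received the test compound; that depth persisted throughout. Plants scored visually 13 to 14 days on, 0 (no effect) to 100 (complete control), dash indicating no result.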
# green foxtail [2] = assay: Test C postemergence; format: in vivo, Setaria viridis; details: 10 days
# In short: as §1
# soybean [3] = assay: Test C postemergence; format: in vivo, Glycine max; details: 10 days
# In short: as §1
# galium = assay: Test C postemergence; format: in vivo, Galium aparine; details: 10 days
# In short: as §1
# kochia [4] = assay: Test C preemergence; format: in vivo, Bassia scoparia; details: 0 to 100 scale (0 no effect, 100 complete control); for Plant response rating, Kochia: Preemergence, 500 g ai/ha, visual rating after 10 days; for Kochia plant response rating: Test C, preemergence, 125 g ai/ha
# In short: as §1
# ryegrass, Italian = assay: Test C postemergence; format: in vivo, Lolium multiflorum; details: 10 days
# In short: as §1
# blackgrass [5] = assay: Test C preemergence; format: in vivo, Alopecurus myosuroides; details: 0 to 100 scale (0 no effect, 100 complete control); for Plant response rating, Blackgrass: Preemergence, 500 g ai/ha, visual rating after 10 days; for Blackgrass plant response rating: Test C, preemergence, 125 g ai/ha
# In short: as §1
# soybean [6] = assay: Test C preemergence; format: in vivo, Glycine max; details: 0 to 100 scale (0 no effect, 100 complete control); for Plant response rating, Soybean: Preemergence, 500 g ai/ha, visual rating after 10 days; for Soybean plant response rating: Test C, preemergence, 125 g ai/ha
# In short: as §1
# barnyardgrass [7] = assay: Test C preemergence; format: in vivo, Echinochloa crusgalli; details: 0 to 100 scale (0 no effect, 100 complete control); for Plant response rating, Barnyardgrass: Preemergence, 500 g ai/ha, visual rating after 10 days; for Barnyardgrass plant response rating: Test C, preemergence, 125 g ai/ha
# In short: as §1
# corn [8] = assay: Test C preemergence; format: in vivo, Zea mays; details: 0 to 100 scale (0 no effect, 100 complete control); for Plant response rating, Corn: Preemergence, 500 g ai/ha, visual rating after 10 days; for Corn plant response rating: Test C, preemergence, 125 g ai/ha
# In short: as §1
# ragweed [9] = assay: Test C preemergence; format: in vivo, Ambrosia artemisiifolia; details: 0 to 100 scale (0 no effect, 100 complete control); for Plant response rating, Ragweed: Preemergence, 500 g ai/ha, visual rating after 10 days; for Ragweed plant response rating: Test C, preemergence, 125 g ai/ha
# In short: as §1
# wheat [10] = assay: Test C preemergence; format: in vivo, Triticum aestivum; details: 0 to 100 scale (0 no effect, 100 complete control); for Plant response rating, Wheat: Preemergence, 500 g ai/ha, visual rating after 10 days; for Wheat plant response rating: Test C, preemergence, 125 g ai/ha
# In short: as §1
# corn [11] = assay: Test C postemergence; format: in vivo, Zea mays; details: 10 days
# In short: as §1
# pigweed, palmer [12] = assay: Test C preemergence; format: in vivo, Amaranthus palmeri; details: 0 to 100 scale (0 no effect, 100 complete control); for Plant response rating, Pigweed, Palmer: Preemergence, 500 g ai/ha, visual rating after 10 days; for Pigweed, Palmer plant response rating: Test C, preemergence, 125 g ai/ha
# In short: as §1
# kochia [13] = assay: Test C postemergence; format: in vivo, Bassia scoparia; details: 10 days
# In short: as §1
# green foxtail [14] = assay: Test C preemergence; format: in vivo, Setaria viridis; details: 0 to 100 scale (0 no effect, 100 complete control); for Plant response rating, Foxtail, Green: Preemergence, 500 g ai/ha, visual rating after 10 days; for Foxtail, Green plant response rating: Test C, preemergence, 125 g ai/ha
# In short: as §1
# barnyardgrass [15] = assay: Test D flooded paddy test; format: in vivo, Echinochloa crus-galli; details: 250 g ai/ha, applied to paddy water, visual rating after 13 to 14 days, scale 0 to 100 (0 no effect, 100 complete control)
# In short: as §2
# blackgrass [16] = assay: Test C postemergence; format: in vivo, Alopecurus myosuroides; details: 10 days
# In short: as §1
# oat, wild [17] = assay: Test C preemergence; format: in vivo, Avena fatua; details: 0 to 100 scale (0 no effect, 100 complete control); for Plant response rating, Oat, Wild: Preemergence, 500 g ai/ha, visual rating after 10 days; for Oat, Wild plant response rating: Test C, preemergence, 125 g ai/ha
# In short: as §1
# rice = assay: Test D flooded paddy test; format: in vivo, Oryza sativa; details: 250 g ai/ha, applied to paddy water, visual rating after 13 to 14 days, scale 0 to 100 (0 no effect, 100 complete control)
# In short: as §2
# ragweed [18] = assay: Test C postemergence; format: in vivo, Ambrosia artemisiifolia; details: 10 days
# In short: as §1
# oat, wild [19] = assay: Test C postemergence; format: in vivo, Avena fatua; details: 10 days
# In short: as §1
# barnyardgrass [20] = assay: Test C postemergence; format: in vivo, Echinochloa crusgalli; details: 10 days
# In short: as §1
# ducksalad = assay: Test D flooded paddy test; format: in vivo, Heteranthera limosa; details: 250 g ai/ha, applied to paddy water, visual rating after 13 to 14 days, scale 0 to 100 (0 no effect, 100 complete control)
# In short: as §2
# wheat [21] = assay: Test C postemergence; format: in vivo, Triticum aestivum; details: 10 days
# In short: as §1
# horseweed = assay: Test C postemergence; format: in vivo, Erigeron canadensis; details: 10 days
# In short: as §1
# [22] = 125 g ai/ha, postemergence, 0 to 100 scale, 0 no effect, 100 complete control
# [23] = Postemergence, 500 g ai/ha, visual 0 to 100 scale (0 no effect, 100 complete control)
smiles,measurement,setting,value
CCc1c(C)cc(-n2cnc(C(C)C)n2)cc1C(=O)N1C[C@H](C)Oc2c(Cl)cccc21 [Compound 179],"Plant response rating, Pigweed, Palmer","pigweed, palmer [1]; [22]",10
same,"Plant response rating, Pigweed, Palmer","pigweed, palmer [1]; [23]",60
same,"Plant response rating, Sedge, Umbrella (Flood)","sedge, umbrella",0
same,"Plant response rating, Foxtail, Green",green foxtail [2]; [22],10
same,"Plant response rating, Foxtail, Green",green foxtail [2]; [23],20
same,"Plant response rating, Soybean",soybean [3]; [23],40
same,"Plant response rating, Galium",galium; [22],50
same,"Plant response rating, Galium",galium; [23],90
same,"Plant response rating, Kochia",kochia [4],0
same,Kochia plant response rating,kochia [4],0
same,"Plant response rating, Ryegrass, Italian","ryegrass, Italian; [22]",0
same,"Plant response rating, Ryegrass, Italian","ryegrass, Italian; [23]",20
same,"Plant response rating, Blackgrass",blackgrass [5],0
same,Blackgrass plant response rating,blackgrass [5],0
same,"Plant response rating, Soybean",soybean [6],0
same,Soybean plant response rating,soybean [6],0
same,"Plant response rating, Barnyardgrass",barnyardgrass [7],0
same,Barnyardgrass plant response rating,barnyardgrass [7],0
same,"Plant response rating, Corn",corn [8],0
same,Corn plant response rating,corn [8],0
same,"Plant response rating, Ragweed",ragweed [9],0
same,Ragweed plant response rating,ragweed [9],0
same,"Plant response rating, Wheat",wheat [10],0
same,Wheat plant response rating,wheat [10],0
same,"Plant response rating, Corn",corn [11]; [22],0
same,"Plant response rating, Corn",corn [11]; [23],10
same,"Plant response rating, Pigweed, Palmer","pigweed, palmer [12]",10
same,"Pigweed, Palmer plant response rating","pigweed, palmer [12]",0
same,"Plant response rating, Kochia",kochia [13]; [22],30
same,"Plant response rating, Kochia",kochia [13]; [23],30
same,"Plant response rating, Foxtail, Green",green foxtail [14],50
same,"Foxtail, Green plant response rating",green foxtail [14],0
same,"Plant response rating, Barnyardgrass (Flood)",barnyardgrass [15],0
same,"Plant response rating, Blackgrass",blackgrass [16]; [22],0
same,"Plant response rating, Blackgrass",blackgrass [16]; [23],0
same,"Plant response rating, Oat, Wild","oat, wild [17]",0
same,"Oat, Wild plant response rating","oat, wild [17]",0
same,"Plant response rating, Rice (Flood)",rice,0
same,"Plant response rating, Ragweed",ragweed [18]; [23],10
same,"Plant response rating, Oat, Wild","oat, wild [19]; [22]",0
same,"Plant response rating, Oat, Wild","oat, wild [19]; [23]",0
same,"Plant response rating, Barnyardgrass",barnyardgrass [20]; [22],10
same,"Plant response rating, Barnyardgrass",barnyardgrass [20]; [23],10
same,"Plant response rating, Ducksalad (Flood)",ducksalad,0
same,"Plant response rating, Wheat",wheat [21]; [22],10
same,"Plant response rating, Wheat",wheat [21]; [23],10
same,"Plant response rating, Horseweed",horseweed; [22],0
same,"Plant response rating, Horseweed",horseweed; [23],40
CSCc1ncn(-c2ccc(C)c(C(=O)N3C[C@H](C)Oc4c(Cl)cccc43)c2)n1 [Compound 178],"Plant response rating, Pigweed, Palmer","pigweed, palmer [1]; [22]",90
same,"Plant response rating, Pigweed, Palmer","pigweed, palmer [1]; [23]",90
same,"Plant response rating, Sedge, Umbrella (Flood)","sedge, umbrella",90
same,"Plant response rating, Foxtail, Green",green foxtail [2]; [22],20
same,"Plant response rating, Foxtail, Green",green foxtail [2]; [23],90
same,"Plant response rating, Soybean",soybean [3]; [22],100
same,"Plant response rating, Soybean",soybean [3]; [23],100
same,"Plant response rating, Galium",galium; [22],100
same,"Plant response rating, Galium",galium; [23],100
same,"Plant response rating, Kochia",kochia [4],100
same,Kochia plant response rating,kochia [4],90
same,"Plant response rating, Ryegrass, Italian","ryegrass, Italian; [22]",80
same,"Plant response rating, Ryegrass, Italian","ryegrass, Italian; [23]",100
same,"Plant response rating, Blackgrass",blackgrass [5],90
same,Blackgrass plant response rating,blackgrass [5],60
same,"Plant response rating, Soybean",soybean [6],80
same,Soybean plant response rating,soybean [6],60
same,"Plant response rating, Barnyardgrass",barnyardgrass [7],90
same,Barnyardgrass plant response rating,barnyardgrass [7],20
same,"Plant response rating, Corn",corn [8],50
same,Corn plant response rating,corn [8],20
same,"Plant response rating, Ragweed",ragweed [9],50
same,Ragweed plant response rating,ragweed [9],0
same,"Plant response rating, Wheat",wheat [10],70
same,Wheat plant response rating,wheat [10],30
same,"Plant response rating, Corn",corn [11]; [22],60
same,"Plant response rating, Corn",corn [11]; [23],90
same,"Plant response rating, Pigweed, Palmer","pigweed, palmer [12]",100
same,"Pigweed, Palmer plant response rating","pigweed, palmer [12]",90
same,"Plant response rating, Kochia",kochia [13]; [22],80
same,"Plant response rating, Kochia",kochia [13]; [23],90
same,"Plant response rating, Foxtail, Green",green foxtail [14],100
same,"Foxtail, Green plant response rating",green foxtail [14],100
same,"Plant response rating, Barnyardgrass (Flood)",barnyardgrass [15],15
same,"Plant response rating, Blackgrass",blackgrass [16]; [22],60
same,"Plant response rating, Blackgrass",blackgrass [16]; [23],90
same,"Plant response rating, Oat, Wild","oat, wild [17]",90
same,"Oat, Wild plant response rating","oat, wild [17]",30
same,"Plant response rating, Rice (Flood)",rice,15
same,"Plant response rating, Ragweed",ragweed [18]; [22],60
same,"Plant response rating, Ragweed",ragweed [18]; [23],90
same,"Plant response rating, Oat, Wild","oat, wild [19]; [22]",30
same,"Plant response rating, Oat, Wild","oat, wild [19]; [23]",90
same,"Plant response rating, Barnyardgrass",barnyardgrass [20]; [22],10
same,"Plant response rating, Barnyardgrass",barnyardgrass [20]; [23],60
same,"Plant response rating, Ducksalad (Flood)",ducksalad,95
same,"Plant response rating, Wheat",wheat [21]; [22],20
same,"Plant response rating, Wheat",wheat [21]; [23],50
same,"Plant response rating, Horseweed",horseweed; [22],70
same,"Plant response rating, Horseweed",horseweed; [23],90
